The text below walks through data of patent US12263180B2, “Method for treatment of COVID-19-associated conditions” (priority 2020, dated 2025).

The structures appear in SMILES notation. In brackets after ≈: the same amount, converted by molar mass. Where two headings read alike, the source gives them in different places.

For one data set, the system named is MUC1. Particulars: mouse model of ALI; cited from earlier work.
Data set [1] can be described thus: water solubility in aqueous buffer under physiological conditions.
For another data set, the system named is LPS-induced ALI. The conditions noted are these: mice; cited from earlier work.
The conditions of data set [2]: human, in vivo; cited from earlier work.
A further data set has as its system human neutrophils. Particulars: in vitro; cited from earlier work.
A short description of a further data set: physchem. The conditions noted are these: aqueous buffer.
For data set [3] the following is noted: in vivo.
The test system of data set [4] is chronic immune thrombocytopenia (ITP). Particulars: ITP patients, two randomized studies; cited from earlier work.
In data set [5] the test system is COVID-19. Description: Phase 3 placebo-controlled study in hospitalized COVID-19 patients. It is filed as in vivo.
A further data set relates to IL-6. The conditions noted are these: RA patients, within the first week of treatment; cited from earlier work.
Data set [6] relates to SARS-CoV-2 as well as other human and bat coronaviruses. Particulars: mice; cited from earlier work.
The test system is the same in data set [7]. The conditions noted are these: human airway epithelial cells; cited from earlier work.
Data set [8] concerns COVID-19. Particulars: critically ill COVID-19 patients, compared to standard care; cited from earlier work.
A further data set deals with human ACE2 (Homo sapiens, UniProt Q9BYF1). Particulars: cited from earlier work.
Sequence of human ACE2 (Q9BYF1 18-805): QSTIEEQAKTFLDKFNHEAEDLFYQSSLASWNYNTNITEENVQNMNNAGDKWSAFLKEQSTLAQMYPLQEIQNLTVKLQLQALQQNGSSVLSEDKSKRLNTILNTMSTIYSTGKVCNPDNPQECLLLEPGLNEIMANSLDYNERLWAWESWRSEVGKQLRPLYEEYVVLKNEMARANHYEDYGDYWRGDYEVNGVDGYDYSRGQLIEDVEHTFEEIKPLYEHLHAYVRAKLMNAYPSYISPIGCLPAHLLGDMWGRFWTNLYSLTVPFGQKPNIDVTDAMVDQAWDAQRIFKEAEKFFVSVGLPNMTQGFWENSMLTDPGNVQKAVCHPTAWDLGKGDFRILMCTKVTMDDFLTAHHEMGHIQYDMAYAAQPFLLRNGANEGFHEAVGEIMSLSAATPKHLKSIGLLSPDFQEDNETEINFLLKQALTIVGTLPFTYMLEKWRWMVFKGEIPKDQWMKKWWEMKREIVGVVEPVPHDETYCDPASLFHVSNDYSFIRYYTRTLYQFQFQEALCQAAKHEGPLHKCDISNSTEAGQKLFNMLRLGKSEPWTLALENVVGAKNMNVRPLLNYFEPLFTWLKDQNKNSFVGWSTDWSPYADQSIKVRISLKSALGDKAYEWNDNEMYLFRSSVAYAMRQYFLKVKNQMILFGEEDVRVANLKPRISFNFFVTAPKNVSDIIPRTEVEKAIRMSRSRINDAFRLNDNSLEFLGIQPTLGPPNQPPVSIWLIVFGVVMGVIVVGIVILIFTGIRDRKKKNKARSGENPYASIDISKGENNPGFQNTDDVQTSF

`COc1cc(Nc2ncc(F)c(Nc3ccc4c(n3)NC(=O)C(C)(C)O4)n2)cc(OC)c1OC` [Compound 1, N4-(2,2-Dimethyl-3-oxo-4H-5-pyrid[1,4]oxazin-6-yl)-5-fluoro-N2-(3,4,5-trimethoxyphenyl)-2,4-pyrimidinediamine]: in the data set on MUC1, the MUC1 entry is “reduced MUC1”. Further, in data set [1], the solubility is 1 to 2 µg/mL (≈ 2.13 to 4.25 µM). In addition, the “protection in LPS-induced ALI” value in the data set with LPS-induced ALI is given as “protective”.

Regarding `COc1cc(Nc2ncc(F)c(Nc3ccc4c(n3)N(COP(=O)(O)O)C(=O)C(C)(C)O4)n2)cc(OC)c1OC` [Compound 4], in data set [2], the safety profile result is reported as “manageable safety profile”. In the data set on human neutrophils, the NETosis result was “block NETosis”. The solubility in the data set “physchem” was more than 5000 µg/mL. The “oral bioavailability when formulated with progroup -CH2-O-P(O)(OH)2” value in [3] is given as “increased dramatically”. In [4], the bleeding episodes entry was “decreased bleeding episodes” and the platelet counts result is listed as “increased platelet counts”. In addition, in the data set with COVID-19 [5] (vs placebo), the “occurrence of several severe symptoms of COVID-19 (AKI, kidney malfunction, acute lung injury, thrombosis, coagulopathy)” value is recorded as “significantly reduced” and the “percentage of COVID-19 infected patients that develop severe disease that requires intensive care” value is recorded as “significantly reduce”. Moreover, in the data set on COVID-19 [5] (within 29 days of first dose, vs placebo), the “percentage of patients developing severe or critical disease” value is listed as “significantly smaller percentage”. In the data set on COVID-19 [5] (within patients requiring intensive care), the “percentage of patients that develop ARDS” value is recorded as “significantly reduce”. For the same compound, the “number of patients that die” value with COVID-19 [5] (within patients that develop ARDS) is on record as “significantly reduce”. Moreover, the “plasma levels of IL-6” value in the data set with IL-6 is “reduce plasma levels of IL-6”.

On to `O=c1nc(NO)ccn1[C@@H]1O[C@H](CO)[C@@H](O)[C@H]1O` [N4-hydroxycytidine], for which the inhibition of coronaviruses entry was “inhibit SARS-CoV-2 as well as other human and bat coronaviruses” in [6]; “inhibit SARS-CoV-2 as well as other human and bat coronaviruses” in data set [7].

With `C[C@]12CCC(=O)C=C1CC[C@@H]1[C@@H]2[C@@H](O)C[C@@]2(C)[C@H]1CC[C@]2(O)C(=O)CO` [hydrocortisone, Hydrocortisone], the mortality rate result in the data set on COVID-19 [8] was “effective in reducing mortality rate”.

As for `N[C@@H](CCN[C@@H](CCN1CC[C@H]1C(=O)O)C(=O)O)C(=O)O` [nicotianamine], at human ACE2, the IC50 was 84 nM.
